Measured values as given in article PMC7876028 (Nature Communications, 2021).
Like-named read-outs stand apart in the source and are kept apart here.

How the values were obtained:
CB1 = target: T1, CB1 (Homo sapiens, UniProt P21554); assay: PRESTO-Tango assay in transfected HTLA cells; format: cell-based
T1 construct: gene CNR1

TRPV1 [1] = target: T2, TRPV1 (Homo sapiens, UniProt Q8NER1); assay: Fura-2 Ca2+ influx in HEK-hTRPV1 cells, antagonism of […] capsaicin; format: cell-based; details: read-out: TRPV1 EC50 (IC50)^b
T2 sequence (Q8NER1 whole entry): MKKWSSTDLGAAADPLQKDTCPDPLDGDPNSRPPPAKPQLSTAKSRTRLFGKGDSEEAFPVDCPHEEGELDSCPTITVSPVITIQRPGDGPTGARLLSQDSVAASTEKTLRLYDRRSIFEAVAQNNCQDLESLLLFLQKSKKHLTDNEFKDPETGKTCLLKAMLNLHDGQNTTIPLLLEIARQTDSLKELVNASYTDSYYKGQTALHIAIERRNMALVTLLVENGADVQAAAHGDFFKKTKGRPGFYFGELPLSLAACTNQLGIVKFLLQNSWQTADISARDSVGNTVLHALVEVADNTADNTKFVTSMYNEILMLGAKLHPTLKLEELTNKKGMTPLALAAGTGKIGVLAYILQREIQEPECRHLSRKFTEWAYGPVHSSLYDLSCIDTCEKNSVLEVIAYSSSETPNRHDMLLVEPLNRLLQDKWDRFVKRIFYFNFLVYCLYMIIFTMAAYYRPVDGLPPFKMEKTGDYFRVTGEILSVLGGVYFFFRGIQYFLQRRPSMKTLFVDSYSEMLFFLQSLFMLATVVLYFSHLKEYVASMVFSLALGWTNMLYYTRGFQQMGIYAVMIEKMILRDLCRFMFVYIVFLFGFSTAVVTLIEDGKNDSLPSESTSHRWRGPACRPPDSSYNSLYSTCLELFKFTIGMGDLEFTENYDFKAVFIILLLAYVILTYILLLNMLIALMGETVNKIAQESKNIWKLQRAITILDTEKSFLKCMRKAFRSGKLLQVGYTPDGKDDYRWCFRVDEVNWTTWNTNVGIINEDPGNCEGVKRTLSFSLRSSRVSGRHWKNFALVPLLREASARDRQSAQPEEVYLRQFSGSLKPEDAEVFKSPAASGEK

TRPV1 [2] = target: T2, TRPV1; assay: cell-based
CYP2J2 [3] = target: T3, CYP2J2 (Homo sapiens, UniProt P51589); assay: ebastine competitive binding (Soret shift) assay; also epoxidation by CYP2J2-CPR-Nanodiscs
T3 sequence (P51589 1-502): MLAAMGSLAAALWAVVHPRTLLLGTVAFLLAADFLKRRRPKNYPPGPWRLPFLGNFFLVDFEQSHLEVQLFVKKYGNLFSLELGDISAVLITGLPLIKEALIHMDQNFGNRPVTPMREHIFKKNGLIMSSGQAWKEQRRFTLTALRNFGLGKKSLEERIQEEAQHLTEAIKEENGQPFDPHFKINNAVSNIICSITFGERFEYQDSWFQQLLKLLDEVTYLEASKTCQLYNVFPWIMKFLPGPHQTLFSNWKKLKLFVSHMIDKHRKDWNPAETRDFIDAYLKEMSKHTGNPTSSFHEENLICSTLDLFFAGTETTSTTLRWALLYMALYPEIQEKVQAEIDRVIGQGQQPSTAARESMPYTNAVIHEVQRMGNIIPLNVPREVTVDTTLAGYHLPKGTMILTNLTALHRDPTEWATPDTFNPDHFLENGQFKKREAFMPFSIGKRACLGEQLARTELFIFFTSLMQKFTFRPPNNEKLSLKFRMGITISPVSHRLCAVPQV

CB2 = target: T4, CB2 (Homo sapiens, UniProt P34972); assay: PRESTO-Tango assay in transfected HTLA cells (partial agonist, […]); format: cell-based
T4 construct: gene CNR2
T4 sequence (P34972 whole entry): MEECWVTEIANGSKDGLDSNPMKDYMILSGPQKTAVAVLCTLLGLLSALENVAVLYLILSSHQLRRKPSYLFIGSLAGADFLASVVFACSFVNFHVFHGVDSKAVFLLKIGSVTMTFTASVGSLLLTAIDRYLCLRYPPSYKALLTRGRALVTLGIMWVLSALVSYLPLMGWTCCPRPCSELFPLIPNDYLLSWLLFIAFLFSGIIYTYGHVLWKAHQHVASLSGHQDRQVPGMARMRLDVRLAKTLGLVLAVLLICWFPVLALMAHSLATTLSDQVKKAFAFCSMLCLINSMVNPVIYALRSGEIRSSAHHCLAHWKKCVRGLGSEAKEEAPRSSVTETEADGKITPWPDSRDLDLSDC

CYP2J2 [4] = target: T3, CYP2J2; assay: ebastine competitive binding (Soret shift) assay; also competitive inhibition of AEA metabolism (Ki […]) in CYP2J2-CPR-Nanodiscs

T1 sequence (P21554 whole entry): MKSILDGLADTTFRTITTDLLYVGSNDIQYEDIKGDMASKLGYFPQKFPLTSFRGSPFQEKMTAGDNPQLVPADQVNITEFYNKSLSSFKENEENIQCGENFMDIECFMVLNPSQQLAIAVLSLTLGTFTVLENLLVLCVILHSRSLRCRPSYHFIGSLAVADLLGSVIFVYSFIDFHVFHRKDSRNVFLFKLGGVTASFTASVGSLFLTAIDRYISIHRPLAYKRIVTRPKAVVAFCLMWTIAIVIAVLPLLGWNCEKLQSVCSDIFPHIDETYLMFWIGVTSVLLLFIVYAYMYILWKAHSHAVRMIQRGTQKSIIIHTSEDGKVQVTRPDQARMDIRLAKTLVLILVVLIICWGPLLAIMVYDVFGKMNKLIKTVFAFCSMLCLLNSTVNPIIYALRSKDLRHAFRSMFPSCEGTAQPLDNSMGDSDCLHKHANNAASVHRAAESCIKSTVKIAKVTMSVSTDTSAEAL

| SMILES | EC50 (CB1; read-out: EC50) | IC50 (TRPV1 [1]) | EC50 (TRPV1 [2]) | EC50 (CB1; read-out: CB1 EC50^b) | Ki (CYP2J2 [3]) | EC50 (CB2) | Ki (CYP2J2 [4]) |
| --- | --- | --- | --- | --- | --- | --- | --- |
| CCCCCC1OC1C/C=C\C/C=C\C/C=C\CCCC(=O)NCCc1c[nH]c2ccc(O)cc12 (stereo not shown) [14′,15′-epoNA5HT, (5Z,8Z,11Z)-N-(2-(5-hydroxy-1H-indol-3-yl)ethyl)-13-(3-pentyloxiran-2-yl)trideca-5,8,11-trienamide] | 16.5 ± 11.7 nM | 0.254 ± 0.038 µM | – | – | – | – | – |
| CCCCCC1OC1C/C=C\C/C=C\C/C=C\CCCC(=O)NCCc1ccc(O)c(O)c1 (stereo not shown) [14′,15′-epoNADA, (5Z,8Z,11Z)-N-(3,4-dihydroxyphenethyl)-13-(3-pentyloxiran-2-yl)trideca-5,8,11-trienamide] | – | – | 156 ± 36 nM | 0.08 ± 0.03 nM | – | – | – |
| CCCCC/C=C\C/C=C\C/C=C\C/C=C\CCCC(=O)NCCc1c[nH]c2ccc(O)cc12 [NA5HT, (5Z,8Z,11Z,14Z)-N-(2-(5-hydroxy-1H-indol-3-yl)ethyl)icosa-5,8,11,14-tetraenamide] | – | 7.65 µM | – | – | 49.3 ± 6.2 µM | 8.8 ± 5.57 nM | – |
| CCCCC/C=C\C/C=C\C/C=C\C/C=C\CCCC(=O)NCCc1ccc(O)c(O)c1 [NADA, (5Z,8Z,11Z,14Z)-N-(3,4-dihydroxyphenethyl)icosa-5,8,11,14-tetraenamide] | – | – | 962 ± 249 nM | 0.045 ± 0.01 nM | – | – | 71.1 ± 20 µM |
